{"source": "PubChem BioAssay AID1845195", "about": "(Molecular Pharmacology Branch, DTP, NCI, 2023);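 further: spheroids exposed to compounds for 7 days before readout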;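 on viability, T/C: percent of vehicle control viability where 100% = DMSO-treated spheroids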", "test_system": "156681-154-R-J1 tumor spheroid viability", "test": "Anticancer human tumor 156681-154-R-J1 patient-derived melanoma cell line growth inhibition", "conditions": "spheroids with HUVEC and MSC; for viability, T/C: stronger effect = lower value", "how_it_was_run": "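Single agents and combinations were tested on spheroids built from tumor cells plus HUVEC and hMSC, at half-log dilutions starting at or near clinical Cmax, else 10 microM; final DMSO 0.25% (v/v).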", "key": {"[1]": {"conditions": "curve of first compound, second compound 1 µM"}, "[2]": {"conditions": "curve of first compound, second compound 3.16 µM"}, "[3]": {"conditions": "curve of first compound, second compound 10 µM"}, "[4]": {"conditions": "curve of first compound, second compound 31.6 µM"}, "[5]": {"conditions": "curve of first compound, second compound 100 µM"}}}
{"smiles": "Cc1sc2c(c1C)C(c1ccc(Cl)cc1)=NC(CC(=O)Nc1ccc(O)cc1)c1nnc(C)n1-2", "note": "(stereo unspecified) + Cn1nnc2c(C(N)=O)ncn2c1=O", "values": [{"measurement": "IC50", "setting": "[1]", "value": "> 3000", "unit": "nM"}, {"measurement": "IC50", "setting": "[2]", "value": 857, "unit": "nM"}, {"measurement": "IC50", "setting": "[3]", "value": 128, "unit": "nM"}, {"measurement": "IC50", "setting": "[4]", "value": 20.4, "unit": "nM"}, {"measurement": "IC50", "setting": "[5]", "value": 14.8, "unit": "nM"}, {"measurement": "viability, T/C", "setting": "second compound 1 µM, first compound 0.00949 µM", "value": 92, "unit": "%"}, {"measurement": "viability, T/C", "setting": "second compound 1 µM, first compound 0.03 µM", "value": 76, "unit": "%"}, {"measurement": "viability, T/C", "setting": "second compound 1 µM, first compound 0.0949 µM", "value": 81.5, "unit": "%"}, {"measurement": "viability, T/C", "setting": "second compound 1 µM, first compound 0.3 µM", "value": 80.7, "unit": "%"}, {"measurement": "viability, T/C", "setting": "second compound 1 µM, first compound 0.949 µM", "value": 70.9, "unit": "%"}, {"measurement": "viability, T/C", "setting": "second compound 1 µM, first compound 3 µM", "value": 57, "unit": "%"}, {"measurement": "viability, T/C", "setting": "second compound 3.16 µM, first compound 0.00949 µM", "value": 90.3, "unit": "%"}, {"measurement": "viability, T/C", "setting": "second compound 3.16 µM, first compound 0.03 µM", "value": 70.2, "unit": "%"}, {"measurement": "viability, T/C", "setting": "second compound 3.16 µM, first compound 0.0949 µM", "value": 76.4, "unit": "%"}, {"measurement": "viability, T/C", "setting": "second compound 3.16 µM, first compound 0.3 µM", "value": 54.9, "unit": "%"}, {"measurement": "viability, T/C", "setting": "second compound 3.16 µM, first compound 0.949 µM", "value": 52.4, "unit": "%"}, {"measurement": "viability, T/C", "setting": "second compound 3.16 µM, first compound 3 µM", "value": 37.4, "unit": "%"}, {"measurement": "viability, T/C", "setting": "second compound 10 µM, first compound 0.00949 µM", "value": 79.1, "unit": "%"}, {"measurement": "viability, T/C", "setting": "second compound 10 µM, first compound 0.03 µM", "value": 75.5, "unit": "%"}, {"measurement": "viability, T/C", "setting": "second compound 10 µM, first compound 0.0949 µM", "value": 47.9, "unit": "%"}, {"measurement": "viability, T/C", "setting": "second compound 10 µM, first compound 0.3 µM", "value": 41.3, "unit": "%"}, {"measurement": "viability, T/C", "setting": "second compound 10 µM, first compound 0.949 µM", "value": 35.6, "unit": "%"}, {"measurement": "viability, T/C", "setting": "second compound 10 µM, first compound 3 µM", "value": 24.4, "unit": "%"}, {"measurement": "viability, T/C", "setting": "second compound 31.6 µM, first compound 0.00949 µM", "value": 62.3, "unit": "%"}, {"measurement": "viability, T/C", "setting": "second compound 31.6 µM, first compound 0.03 µM", "value": 43, "unit": "%"}, {"measurement": "viability, T/C", "setting": "second compound 31.6 µM, first compound 0.0949 µM", "value": 31.8, "unit": "%"}, {"measurement": "viability, T/C", "setting": "second compound 31.6 µM, first compound 0.3 µM", "value": 29, "unit": "%"}, {"measurement": "viability, T/C", "setting": "second compound 31.6 µM, first compound 0.949 µM", "value": 22.6, "unit": "%"}, {"measurement": "viability, T/C", "setting": "second compound 31.6 µM, first compound 3 µM", "value": 18.6, "unit": "%"}, {"measurement": "viability, T/C", "setting": "second compound 100 µM, first compound 0.00949 µM", "value": 53.4, "unit": "%"}, {"measurement": "viability, T/C", "setting": "second compound 100 µM, first compound 0.03 µM", "value": 44.5, "unit": "%"}, {"measurement": "viability, T/C", "setting": "second compound 100 µM, first compound 0.0949 µM", "value": 26.4, "unit": "%"}, {"measurement": "viability, T/C", "setting": "second compound 100 µM, first compound 0.3 µM", "value": 13.6, "unit": "%"}, {"measurement": "viability, T/C", "setting": "second compound 100 µM, first compound 0.949 µM", "value": 12.3, "unit": "%"}, {"measurement": "viability, T/C", "setting": "second compound 100 µM, first compound 3 µM", "value": 11.7, "unit": "%"}]}
{"smiles": "COc1cc2c(cc1O)CCNC21CSC2c3c(OC(C)=O)c(C)c4c(c3C(COC1=O)N1C(O)C3Cc5cc(C)c(OC)c(O)c5C(C21)N3C)OCO4", "note": "(stereo unspecified)", "values": [{"measurement": "viability, T/C", "setting": "compound 30 pM", "value": "95.8% [middle of 10 runs]"}, {"measurement": "viability, T/C", "setting": "compound 94.9 pM", "value": "101% [middle of 10 runs]"}, {"measurement": "viability, T/C", "setting": "compound 0.0003 µM", "value": "80.7% [middle of 10 runs]"}, {"measurement": "viability, T/C", "setting": "compound 0.000949 µM", "value": "4.41% [middle of 10 runs]"}, {"measurement": "viability, T/C", "setting": "compound 0.003 µM", "value": "0.17% [middle of 9 runs]"}, {"measurement": "IC50", "setting": "compound alone, run of 10/25/2019", "value": "0.477 nM [middle of 10 runs]"}]}
{"smiles": "Cc1cc(C)c(CNC(=O)c2cc(-c3ccc(CN4CCOCC4)cc3)cc3c2cnn3C2CCCC2)c(=O)[nH]1", "note": "+ Cn1nnc2c(C(N)=O)ncn2c1=O", "values": [{"measurement": "IC50", "setting": "[1]", "value": "> 10000", "unit": "nM"}, {"measurement": "IC50", "setting": "[2]", "value": "> 10000", "unit": "nM"}, {"measurement": "IC50", "setting": "[3]", "value": "> 10000", "unit": "nM"}, {"measurement": "IC50", "setting": "[4]", "value": "> 10000", "unit": "nM"}, {"measurement": "IC50", "setting": "[5]", "value": "> 10000", "unit": "nM"}, {"measurement": "viability, T/C", "setting": "second compound 1 µM, first compound 0.0316 µM", "value": 72.6, "unit": "%"}, {"measurement": "viability, T/C", "setting": "second compound 1 µM, first compound 0.1 µM", "value": 107, "unit": "%"}, {"measurement": "viability, T/C", "setting": "second compound 1 µM, first compound 0.316 µM", "value": 90.2, "unit": "%"}, {"measurement": "viability, T/C", "setting": "second compound 1 µM, first compound 1 µM", "value": 92.4, "unit": "%"}, {"measurement": "viability, T/C", "setting": "second compound 1 µM, first compound 3.16 µM", "value": 79.6, "unit": "%"}, {"measurement": "viability, T/C", "setting": "second compound 1 µM, first compound 10 µM", "value": 82.4, "unit": "%"}, {"measurement": "viability, T/C", "setting": "second compound 3.16 µM, first compound 0.0316 µM", "value": 90.6, "unit": "%"}, {"measurement": "viability, T/C", "setting": "second compound 3.16 µM, first compound 0.1 µM", "value": 72.7, "unit": "%"}, {"measurement": "viability, T/C", "setting": "second compound 3.16 µM, first compound 0.316 µM", "value": 83.7, "unit": "%"}, {"measurement": "viability, T/C", "setting": "second compound 3.16 µM, first compound 1 µM", "value": 87.2, "unit": "%"}, {"measurement": "viability, T/C", "setting": "second compound 3.16 µM, first compound 3.16 µM", "value": 68.8, "unit": "%"}, {"measurement": "viability, T/C", "setting": "second compound 3.16 µM, first compound 10 µM", "value": 84.4, "unit": "%"}, {"measurement": "viability, T/C", "setting": "second compound 10 µM, first compound 0.0316 µM", "value": 105, "unit": "%"}, {"measurement": "viability, T/C", "setting": "second compound 10 µM, first compound 0.1 µM", "value": 73.3, "unit": "%"}, {"measurement": "viability, T/C", "setting": "second compound 10 µM, first compound 0.316 µM", "value": 72.4, "unit": "%"}, {"measurement": "viability, T/C", "setting": "second compound 10 µM, first compound 1 µM", "value": 67.1, "unit": "%"}, {"measurement": "viability, T/C", "setting": "second compound 10 µM, first compound 3.16 µM", "value": 69.2, "unit": "%"}, {"measurement": "viability, T/C", "setting": "second compound 10 µM, first compound 10 µM", "value": 77.5, "unit": "%"}, {"measurement": "viability, T/C", "setting": "second compound 31.6 µM, first compound 0.0316 µM", "value": 74.2, "unit": "%"}, {"measurement": "viability, T/C", "setting": "second compound 31.6 µM, first compound 0.1 µM", "value": 65.7, "unit": "%"}, {"measurement": "viability, T/C", "setting": "second compound 31.6 µM, first compound 0.316 µM", "value": 50.5, "unit": "%"}, {"measurement": "viability, T/C", "setting": "second compound 31.6 µM, first compound 1 µM", "value": 63, "unit": "%"}, {"measurement": "viability, T/C", "setting": "second compound 31.6 µM, first compound 3.16 µM", "value": 51.9, "unit": "%"}, {"measurement": "viability, T/C", "setting": "second compound 31.6 µM, first compound 10 µM", "value": 58.4, "unit": "%"}, {"measurement": "viability, T/C", "setting": "second compound 100 µM, first compound 0.0316 µM", "value": 51.2, "unit": "%"}, {"measurement": "viability, T/C", "setting": "second compound 100 µM, first compound 0.1 µM", "value": 61.9, "unit": "%"}, {"measurement": "viability, T/C", "setting": "second compound 100 µM, first compound 0.316 µM", "value": 67.2, "unit": "%"}, {"measurement": "viability, T/C", "setting": "second compound 100 µM, first compound 1 µM", "value": 52.3, "unit": "%"}, {"measurement": "viability, T/C", "setting": "second compound 100 µM, first compound 3.16 µM", "value": 56, "unit": "%"}, {"measurement": "viability, T/C", "setting": "second compound 100 µM, first compound 10 µM", "value": 55.6, "unit": "%"}]}
